Measured values published in patent US20110144014A1, “CYTOKINE RECEPTOR MODULATORS AND USES THEREOF” (CENTRE HOSPITALIER UNIVERSITAIRE SAINTE-JUSTINE, priority 2005, published 2011).
Where a SMILES comes first, the peptide text is derived from it. [ ]: non-standard residue; d: D form.

Legend:
IL-1R/IL-1RacP [1] = assay: IL-1-induced PGE2 synthesis in endothelial cells; format: cell-based, porcine
Experimental: Efficiencies and inhibitory activities of the mutated peptides were determined by measuring the inhibition of IL-1-induced PGE2 synthesis. […] All peptides were tested at concentration 10^−6M.
The arginine of API-101.10 (SEQ ID NO: 10) was replaced by citrulline—to change from a guanidine to a urea group near the N-terminal. Other mutations (e.g. E to Q in API-101.102 and API-101.103) and a truncated peptide at the C-terminal (API-101.108) were also performed to improve the potency and the efficacy of the peptides. Measurement of PGE2 was performed with piglet brain microvessel endothelial cells and WI-38 human fibroblasts. Some of the mutations were advantageous and gave major increases in potency.
IL-1-induced PGE2 synthesis assay on endothelial cells was used as a screening assay for the peptidomimetics.

IL-1R/IL-1RacP [2] = target: T1, IL-1R/IL-1RacP (Rattus norvegicus, UniProt Q02955+Q63621); assay: IL-1β induced hypotension in rats; format: in vivo
T1 construct: 300 g Sprague-Dawley rats were anesthetized with isoflurane; from tissue; host or cells: whole animal (Sprague-Dawley rat)
T1 sequence (Q02955 20-576): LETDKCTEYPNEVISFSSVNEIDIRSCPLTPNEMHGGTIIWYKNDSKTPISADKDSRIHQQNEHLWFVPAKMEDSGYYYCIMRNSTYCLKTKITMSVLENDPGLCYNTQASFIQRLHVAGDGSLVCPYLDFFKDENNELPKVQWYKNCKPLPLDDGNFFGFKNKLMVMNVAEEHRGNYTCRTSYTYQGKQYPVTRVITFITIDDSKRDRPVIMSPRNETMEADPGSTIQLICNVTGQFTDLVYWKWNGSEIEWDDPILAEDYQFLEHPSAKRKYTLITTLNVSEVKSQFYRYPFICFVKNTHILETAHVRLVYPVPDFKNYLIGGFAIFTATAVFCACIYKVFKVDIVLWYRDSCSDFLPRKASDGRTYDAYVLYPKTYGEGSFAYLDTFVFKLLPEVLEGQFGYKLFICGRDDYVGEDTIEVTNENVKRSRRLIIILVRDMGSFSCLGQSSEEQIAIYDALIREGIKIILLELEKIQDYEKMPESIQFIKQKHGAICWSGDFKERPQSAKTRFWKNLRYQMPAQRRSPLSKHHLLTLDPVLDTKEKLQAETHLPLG
T1 sequence (Q63621 21-570): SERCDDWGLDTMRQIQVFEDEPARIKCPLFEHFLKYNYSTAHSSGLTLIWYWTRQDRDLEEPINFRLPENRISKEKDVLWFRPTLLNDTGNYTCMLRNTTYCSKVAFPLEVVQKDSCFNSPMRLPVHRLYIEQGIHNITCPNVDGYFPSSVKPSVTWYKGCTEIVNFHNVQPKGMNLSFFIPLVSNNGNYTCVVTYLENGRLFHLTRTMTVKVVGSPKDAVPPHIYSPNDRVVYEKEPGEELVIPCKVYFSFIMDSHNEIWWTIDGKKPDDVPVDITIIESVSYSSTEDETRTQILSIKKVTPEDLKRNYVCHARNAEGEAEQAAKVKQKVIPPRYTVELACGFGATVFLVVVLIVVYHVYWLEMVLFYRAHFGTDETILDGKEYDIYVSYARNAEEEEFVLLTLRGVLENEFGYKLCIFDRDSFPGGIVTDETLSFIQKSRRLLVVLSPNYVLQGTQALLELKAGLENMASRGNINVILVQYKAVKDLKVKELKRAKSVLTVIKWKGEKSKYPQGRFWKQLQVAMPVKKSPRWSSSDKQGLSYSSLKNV
Experimental: The goal of the next experiment was to verify whether the identified peptides can reverse the physiological actions of the natural cytokine in vivo either by injecting them through the jugular or directly in the stomach (to verify the stability of the peptide through the digestive tractus). 300 g Sprague-Dawley rats were anesthetized with isoflurane (2.5-4%). IL-1β was injected through the jugular. Blood was taken from the carotid for further analyses before and after (10 minutes) every injection. Peptides were then injected either directly in the stomach with a catheter or in the jugular at the concentration desired. Arterial blood pressure and other physiological characteristics were monitored at all times.
The API-101 derivatives, API-101.10 (and others) were also tested to assess whether they could reverse the physiological actions of the natural ligand in vivo by injecting the derivative through the jugular or directly into the stomach (to verify the stability of the peptide through the digestive tract). […] Arterial blood pressure and heart rate were continuously monitored (Gould) while temperature and blood gases (Radiometer) were measured for routine analysis as previously described (Li et al., Am. J. Physiol. 273:R1283-R1290, 1997; Hardy et al., Pediatr. Res. 46:375-382, 1999; Najarian et al., Circ. Res. 87:1149-1156, 2000). […]

IC50 (IL-1R/IL-1RacP [1]): 1.2 nM
reduction of IL-1β induced hypotension (IL-1R/IL-1RacP [2]; directly into the stomach, 10^−5M): 60%
prevention of IL-1β induced hypotension (IL-1R/IL-1RacP [2]; jugular vein injection, 10^−8M, IL-1β 5 μg/kg): 95%
SMILES: CC(C)C[C@@H](NC(=O)[C@@H](CCC(=O)O)NC(=O)[C@H](NC(=O)[C@H](NC(=O)[C@@H](Cc1ccc(O)cc1)NC(=O)[C@H](N)CCCNC(=N)N)[C@H](C)O)C(C)C)C(=O)N[C@H](C)C(N)=O [API-101.10, RYTVELA] (H-[dR][dY][dT][dV][dE][dL][dA]-NH2; N-terminus and C-terminus assumed)
